Key:
[1] = molecular target: T1, human NDP kinase A (NDPK-A, nm23-H1), wild type (Homo sapiens, UniProt P15531); assay: Pre-steady-state phosphotransfer, fluorescence stopped-flow; assay type: biochemical; conditions: catalytic efficiency of phosphotransfer, NDPK-A, pre-steady state
T1 construct: made in house
Protocol: (§1) FIG. 3 depicts the catalytic efficiency of NDPK-A and mutants for nucleoside analogs. The rates of phosphorylation of pure recombinant NDP kinases (1 μM) were measured at the pre-steady state in a fluorescence stopped-flow with d4T-TP (10 to 80 μM). The catalytic efficiency (expressed in M^−1s^−1) was determined from the variation of the rate as a function of analog as shown in FIG. 2 (▾, NDPK-A, ♦ L55H, ● N115S, ▪ L55H-N115S).
(§2) The activity assays were performed at the pre-steady state level.
(§3) Wild type human NDPK-A and the mutants were expressed and purified according to Schneider et al., 2000, Mol Pharm. Recombinant wild type and mutant Dd-NDPK were obtained as described (Schneid, 1998a), except for N119Y NDP kinase which was partially purified by Q sepharose FF chromatography. Each protein was characterized by […] electrophoresis. The concentration of 17 kDa subunits of the enzyme was either determined by Bradford assay ([…]) or using an absorbance coefficient of ΔA^280=1.249 for a 1 mg/mL solution of human wild type and N115S NDPK-A, and =0.55 for wild type and mutant N119S, N119T Dd-NDP kinases, respectively.
(§4) As the diphosphate form of analogs were not always available, the triphosphate analogs were used to study phosphate transfer in reaction as in Scheme I. Experiments were performed with an Hi-Tech DX2 microvolume stopped-flow reaction (Schneider, 1998) at Aexc=296 nm (for Ado derivatives) or […] (for other nucleotides), 2 mm excitation slit and a 320 nm cutoff filter at the emission. After mixing NDPK (1 μM) and NTP or an analogTP (10-500 μM), the intrinsic protein fluorescence was recorded for 10-200 sec. In each experiment, 400 pairs of data were recorded, and the data from 3-4 identical experiments were averaged and fitted to a number of non-linear analytical equations using the software provided by Hi-Tech.
(§5) The data were analyzed using the reaction scheme: [drawing 1]
(§6) In both the forward and the reverse reactions, the product concentration remains very low, thus the product binding can be neglected, and the observed single step could be attributed to the phosphotransfer (Schneider, 1998). The rate of this observed single step is: [formula]
(§7) and reaches a limiting value (k+2) at NTP saturation. […] Therefore, catalytic efficiencies of phosphorylation (CEphos=k+2/(k−1/k+1)=k+2/KS) were measured, which are equivalent to second order constants and allow a reliable comparison of a variety of NDP kinase substrates.

[2] = molecular target: T2, human NDP kinase A (NDPK-A) variant L55H-N115S, SEQ ID NO: 3 (Homo sapiens, UniProt P15531, L55H/N115S); assay: as above; assay type: biochemical; conditions: for k2/Ks: catalytic efficiency of phosphotransfer, L55H-N115S, pre-steady state
T2 construct: made in house; host or cells: E. coli
Protocol: as §1, §2
(§8) R, the specificity change, is the ratio of the catalytic efficiencies (for analog versus natural nucleotide) of the mutant compared to the wild type enzyme.
as §3, §4, §5, §6, §7

[3] = molecular target: T3, human NDP kinase A (NDPK-A) variant L55H (Homo sapiens, UniProt P15531, L55H); assay: as above; assay type: biochemical; conditions: for k2/Ks: catalytic efficiency of phosphotransfer, L55H, pre-steady state
T3 construct: made in house; host or cells: E. coli
Protocol: as §1, §2, §8, §3, §4, §5, §6, §7

[4] = molecular target: T4, human NDP kinase A (NDPK-A) variant N115S, SEQ ID NO: 2 (Homo sapiens, UniProt P15531, N115S); assay: as above; assay type: biochemical; conditions: for k2/Ks: catalytic efficiency of phosphotransfer, N115S, pre-steady state
T4 construct: made in house; host or cells: E. coli
Protocol: as §1, §2, §8, §3, §4, §5, §6, §7

[5] = molecular target: T5, Dictyostelium discoideum NDP kinase (Dd-NDPK), wild type (Dictyostelium discoideum, UniProt P22887); assay: as above; assay type: biochemical; conditions: catalytic efficiency of phosphotransfer, wt
T5 construct: made in house
Protocol: (§9) (A) Kinetics of reaction of phosphorylated Dictyostelium wild type and N119S NDP kinases by 100 μM Acyclovir diphosphate (Acy-DP). The phosphorylated enzyme was prepared with a stoichiometry #1 as described (Deville-Bonne 1996). The kinases were preincubated with ATP in excess in buffer T (50 mM Tris-HCl, pH 7.5, 5 mM MgCl2 and 75 mM KCl). The increase in fluorescence upon mixing the phospho-enzyme (1 μM, final concentration) with Acy-DP in buffer T at 20° C. was monitored with a stopped-flow. The solid lines represent the best fit of each curve to a monoexponential.
(§10) (B) Concentration dependence of the rate constant on Acy-DP concentation. The pseudo-first order rate constant for the reaction (kobs) was plotted against Acy-DP.
(§11) All numbers in italics have already been published (Schneider, 1998, 2000) The kinetic constants were measured at the pre-steady-state level using a fluorescence stopped-flow device. The binding constants were determined at equilibrium by recording the increase in fluorescence (Schneider, 2000). Values are the average of three independent determinations.
as §3
as §4, with “Hi-Tech. All curves fitted to single exponentials.” for “Hi-Tech.”
as §5, §6
(§12) and reaches a limiting value (k+2) at NTP saturation. Saturation could not be obtained with the concentrations of any NTP used here. Therefore, catalytic efficiencies of phosphorylation (CEphos=k+2/(k−1/k+1)=k+2/KS) were measured, which are equivalent to second order constants and allow a reliable comparison of a variety of NDP kinase substrates.

[6] = molecular target: T6, Dictyostelium discoideum NDP kinase (Dd-NDPK) variant N119S, SEQ ID NO: 1 (Dictyostelium discoideum, UniProt P22887, N119S); assay: as above; assay type: biochemical; conditions: catalytic efficiency of phosphotransfer, N119S, pre-steady state
T6 construct: made in house
Protocol: as §9, §10, §11, §3
as §4, with “Hi-Tech. All curves fitted to single exponentials.” for “Hi-Tech.”
as §5, §6, §12

[7] = molecular target: T7, Dictyostelium NDP Kinase N119S (Dictyostelium discoideum, UniProt P22887, N119S); assay: Pre-steady-state fluorescence stopped-flow phosphotransfer from nucleoside triphosphates, N119S Dd-NDPK; assay type: biochemical; conditions: pre-steady state, stopped-flow; average of three determinations
T7 construct: made in house
Protocol: as §11
as §4, with “Hi-Tech. All curves fitted to single exponentials.” for “Hi-Tech.”
as §5, §6, §12

[8] = molecular target: T8, Dictyostelium discoideum NDP kinase inactive variant EI-N119S (H122G-F64W-N119S) (Dictyostelium discoideum, UniProt P22887, F64W/H122G/N119S); assay: biochemical; assay type: binding
T8 construct: made in house
Protocol: (§13) The binding constants were determined at equilibrium by recording the increase in fluorescence (Schneider, 2000).
(§14) Analog binding affinity was measured using a variant of Dd-NDPK (EI) as described (Schneider, 2000). […] The mutation N119S was inserted in EI in order to measure the nucleotide affinity by fluorescence titration.
(§15) Altered bases as compared to the wild type sequence are underlined in bold. Sequences were checked by automatic sequencing. The mutant EI-N119S was obtained by mutation of the previously described F64W-H122G mutated NDP kinase (here called EI) (Schneider 2000).

[9] = molecular target: T9, Dictyostelium discoideum NDP kinase inactive variant EI (H122G-F64W) (Dictyostelium discoideum, UniProt P22887, F64W/H122G); assay: biochemical; assay type: binding
T9 construct: made in house
Protocol: as §13, §14, §15

[10] = Steady-state NDP kinase activity, coupled enzymes (pyruvate kinase, lactate dehydrogenase); assay type: biochemical; conditions: for specific activity: standard conditions: [ATP]=1 mM, [dTDP]=0.2 mM, 20° C.
Protocol: The activity of NDP kinase was measured at 20° C. with ATP and dTDP as substrates using coupled enzymes (pyruvate kinase and lactate dehydrogenase) (Lascu 1993). One unit is the amount of enzyme that catalyzes the phosphotransfer of 1 μmol/min under standard conditions: [ATP]=1 mM, [dTDP]=0.2 mM. Rate constants (kcat) and Michaelis constants (Km) were determined from initial velocities for two different constant ratios of nucleotide [dTDP]/[ATP]=0.05 0.1 with [ATP] varying from 0.2 to 2 mM. kcat is expressed by enzyme subunit. The ratio of the ^apparentkcat/^apparentKM at a given concentration of the other substrate is equal to the true value of kcat/KM for a ping-pong enzyme.

[11] = ratio of catalytic efficiencies analog vs natural nucleotide, mutant vs wild type

T2 sequence (P15531 whole entry L55H/N115S): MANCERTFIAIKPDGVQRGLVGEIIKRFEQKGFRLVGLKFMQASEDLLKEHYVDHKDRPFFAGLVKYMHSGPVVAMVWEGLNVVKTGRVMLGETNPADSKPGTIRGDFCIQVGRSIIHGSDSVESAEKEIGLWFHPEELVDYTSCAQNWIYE
T4 sequence (P15531 whole entry N115S): as the sequence (P15531 whole entry L55H/N115S) above, with H55L counted along it
T3 sequence (P15531 whole entry L55H): as the sequence (P15531 whole entry L55H/N115S) above, with S115N counted along it
T1 sequence (P15531 whole entry): as the sequence (P15531 whole entry L55H/N115S) above, with H55L, S115N counted along it
T7 sequence (P22887 whole entry N119S): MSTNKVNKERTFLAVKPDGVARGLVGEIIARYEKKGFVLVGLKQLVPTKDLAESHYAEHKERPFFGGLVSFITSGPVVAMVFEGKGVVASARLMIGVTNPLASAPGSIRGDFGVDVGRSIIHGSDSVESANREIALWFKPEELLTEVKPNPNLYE
T6 sequence (P22887 whole entry N119S): as above
T8 sequence (P22887 whole entry F64W/N119S/H122G): as the sequence (P22887 whole entry N119S) above, with F64W, H122G counted along it
T9 sequence (P22887 whole entry F64W/H122G): as the sequence (P22887 whole entry N119S) above, with F64W, S119N, H122G counted along it

Molecule | k2/Ks [1] | k2/Ks [2] | k2/Ks [3] | k2/Ks [4] | specific activity [10] | further results
Nc1nc2c(ncn2[C@H]2C[C@H](O)[C@@H](COP(=O)(O)OP(=O)(O)OP(=O)(O)O)O2)c(=O)[nH]1 [dGTP] | 3.6e+06 M⁻¹ s⁻¹ | 500000 M⁻¹ s⁻¹ | 6.8e+06 M⁻¹ s⁻¹ | 240000 M⁻¹ s⁻¹ |  | 
Nc1ncnc2c1ncn2[C@H]1CC[C@@H](COP(=O)(O)OP(=O)(O)OP(=O)(O)O)O1 [ddATP] |  |  |  |  |  | k2/Ks [5]: 1300 M⁻¹ s⁻¹; k2/Ks [6]: 2700 M⁻¹ s⁻¹; k2/Ks N119S (catalytic efficiency of phosphotransfer) [7]: 2700 M⁻¹ s⁻¹; Kd [8]: 2.6 µM; Kd [9]: 4.6 µM
Cc1cn([C@H]2CC[C@@H](COP(=O)(O)OP(=O)(O)OP(=O)(O)O)O2)c(=O)[nH]c1=O [dideoxy-TTP] | 20 M⁻¹ s⁻¹ | 2800 M⁻¹ s⁻¹ | 200 M⁻¹ s⁻¹ | 170 M⁻¹ s⁻¹ |  | Specificity change (R) [2, 11]: (370); Specificity change (R) [3, 11]: (6); Specificity change (R) [4, 11]: (100)
L55H: human NDPK-A with Leu 55 replaced by His |  |  |  |  | 1900 U/mg | steady-state activity relative to NDPK-A ([10]; ATP and dTDP): 1.6 fold
N119Y: Dd-NDPK with Tyr at the position of Asn 119, unstable and poorly active (protein, UniProt P22887 1-155, looked up, variant N119Y) Nucleoside diphosphate …: MSTNKVNKERTFLAVKPDGVARGLVGEIIARYEKKGFVLVGLKQLVPTKDLAESHYAEHKERPFFGGLVSFITSGPVVAMVFEGKGVVASARLMIGVTNPLASAPGSIRGDFGVDVGRYIIHGSDSVESANREIALWFKPEELLTEVKPNPNLYE |  |  |  |  |  | activity relative to wild type ([10]; Dd-NDPK mutant, partially purified): 0.05 % of wild type activity
Dd-NDPK: wild type NDP kinase from Dictyostelium discoideum (protein, UniProt P22887 1-155, looked up) Nucleoside diphosphate …: MSTNKVNKERTFLAVKPDGVARGLVGEIIARYEKKGFVLVGLKQLVPTKDLAESHYAEHKERPFFGGLVSFITSGPVVAMVFEGKGVVASARLMIGVTNPLASAPGSIRGDFGVDVGRNIIHGSDSVESANREIALWFKPEELLTEVKPNPNLYE |  |  |  |  | 2000 U/mg | 

Source: patent US20030207830A1, “Mutant NDP kinases for antiviral nucleotide analog activation and therapeutic uses thereof” (priority 2002, published 2003)
